Where “and” joins values, the source holds several entries; their conditions need not be identical. Identical values can stand only once. Entries after “also recorded” stand apart in the source; their conditions may differ. Like-named read-outs stand apart in the source and are kept apart here.
Assays:
[1] = system: D. immitis transglutaminase; test: Effect of ions, inhibitors and other reagents on activity of transglutaminase purified from adult D. immitis worms (microtiter plate assay); format: biochemical
[2] = system: PHIS-PDiTG468; format: biochemical, D. immitis
[3] = system: PHIS-PDiTG468; format: biochemical, D. immitis; remark: listed apart in the source
[4] = system: D. immitis L3 larvae; test: D. immitis L3 larval molting in in vitro larval culture; format: cell-based
[5] = molecular target: T1, PDI from bovine liver (Bos taurus, UniProt P05307); test: Effect of transglutaminase inhibitors on PDI activity of purified bovine liver PDI (scrambled RNase reactivation); format: biochemical; settings: inhibitor 1 mM
T1 sequence (P05307 21-510): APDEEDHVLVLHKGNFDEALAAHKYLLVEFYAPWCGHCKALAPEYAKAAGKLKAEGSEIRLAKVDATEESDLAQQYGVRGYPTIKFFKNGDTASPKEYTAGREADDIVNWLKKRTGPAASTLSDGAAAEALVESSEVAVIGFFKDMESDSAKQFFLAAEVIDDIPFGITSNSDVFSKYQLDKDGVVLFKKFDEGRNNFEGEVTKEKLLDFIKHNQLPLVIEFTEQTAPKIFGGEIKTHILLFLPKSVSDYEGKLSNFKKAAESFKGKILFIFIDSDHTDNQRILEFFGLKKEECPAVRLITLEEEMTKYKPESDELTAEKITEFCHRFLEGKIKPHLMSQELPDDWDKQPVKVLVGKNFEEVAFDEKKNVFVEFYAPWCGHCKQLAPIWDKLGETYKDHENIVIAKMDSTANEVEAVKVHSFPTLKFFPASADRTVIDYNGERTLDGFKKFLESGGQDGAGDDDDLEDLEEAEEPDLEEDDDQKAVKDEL

[6] = molecular target: bovine protein disulfide isomerase (PDI) (Bos taurus, UniProt P05307)
[7] = system: dimethylcasein; format: biochemical
[8] = reagent 10 mM, with 10 mM CaCl2 and 10 mM dithiothreitol
[9] = 50 μM, inhibitor present during first 24 hr of L3 culture
[10] = 100 μM, inhibitor present during first 24 hr of L3 culture
[11] = reagent 1 mM, with 10 mM CaCl2 and 10 mM dithiothreitol

Molecule: O[C@H](CS)[C@H](O)CS (racemic) [Dithiothreitol]
- Effect on activity of transglutaminase purified from adult D. immitis worms (in words) [1]: increased the enzyme activity substantially
- Effect on transglutaminase activity of PHIS-PDiTG468 (in words) [2]: more active in the absence of DTT

Molecule: N.N.O=S(=O)(O)O [(NH4)2SO4]
- Transglutaminase activity (% of control) [1, 8]: 0 % of control

Molecule: NCCSSCCN [Cystamine]
- PDI Activity (Mean ± SD) of PHIS-PDiTG468 [3]: 33.3 ± 1.8 ΔA min^−1
- Percent molted ([4]; 25 μM, L3 cultured 6 days): 61%
- Percent molted ([4]; 50 μM, L3 cultured 6 days): 62%
- Percent molted [4, 9]: 68%
- Percent molted ([4]; 75 μM, L3 cultured 6 days): 17%
- Percent molted ([4]; 85 μM, L3 cultured 6 days): 1%
- Inhibition of molting of L3 to L4 (in words) ([4]; 100 μM final concentration): completely inhibited the molting process
- Percent molted ([4]; 100 μM, L3 cultured 6 days): 0%
- Percent molted [4, 10]: 13%
- Inhibition of larval molting (in words) ([4]; added on day 2 during the culture): very effective inhibitor of larval molting
- PDI Activity (Mean ± SD) of PDI [5]: 26.4 ± 2.9 ΔA min^−1
- Effect on activity of transglutaminase purified from adult D. immitis worms (in words) [1]: inhibited competitively
- Transglutaminase activity (% of control) [1, 11]: 52 % of control
- Activity (mU ± SEM) [2]: 46.4 ± 4.6 mU and 28.3 ± 2.2 mU
- Effect on transglutaminase activity of PHIS-PDiTG468 (in words) [2]: inhibited the transglutaminase activity

Molecule: O=C(O)CN(CCN(CC(=O)O)CC(=O)O)CC(=O)O [EDTA]
- Effect on transglutaminase activity of PHIS-PDiTG468 (in words) [2]: inhibited
- Effect on transglutaminase activity of bovine PDI (in words) [6]: inhibited

Molecule: O=C(O)CN(CCOCCOCCN(CC(=O)O)CC(=O)O)CC(=O)O [EGTA]
- Effect on activity of transglutaminase purified from adult D. immitis worms (in words) [1]: completely blocked the activity
- Transglutaminase activity (% of control) [1, 8]: 0 % of control
- Effect on transglutaminase activity of PHIS-PDiTG468 (in words) [2]: inhibited

Molecule: Nc1nc2c(ncn2[C@@H]2O[C@H](COP(=O)(O)OP(=O)(O)OP(=O)(O)O)[C@@H](O)[C@H]2O)c(=O)[nH]1 [GTP]
- Effect on activity of transglutaminase purified from adult D. immitis worms (in words) [1]: not affected adversely
- Transglutaminase activity (% of control) ([1]; reagent 0.1 mM, with 10 mM CaCl2 and 10 mM dithiothreitol): 100 % of control
- Transglutaminase activity (% of control) [1, 11]: 95 % of control

Molecule: NC(=O)CI [Iodoacetamide]
- Inhibition of molting of L3 to L4 (in words) [4]: able to inhibit
- Effect on activity of transglutaminase purified from adult D. immitis worms (in words) [1]: decreased the activity drastically
- Effect on transglutaminase activity of PHIS-PDiTG468 (in words) [2]: inhibited the transglutaminase activity

Molecule: [Cl-].[K+] [KCl]
- Transglutaminase activity (% of control) ([1]; reagent 500 mM, with 10 mM CaCl2 and 10 mM dithiothreitol): 54 % of control

Molecule: CN(C)c1cccc2c(S(=O)(=O)NCCCCCN)cccc12 [Monodansyl cadaverine]
- PDI Activity (Mean ± SD) of PHIS-PDiTG468 [3]: 41.2 ± 2.9 ΔA min^−1
- Percent molted ([4]; 25 μM, L3 cultured 6 days): 75%
- Percent molted ([4]; 50 μM, L3 cultured 6 days): 63%
- Percent molted [4, 9]: 64%
- Percent molted ([4]; 75 μM, L3 cultured 6 days): 28%
- Percent molted ([4]; 85 μM, L3 cultured 6 days): 2.5%
- Inhibition of molting of L3 to L4 (in words) ([4]; 100 μM final concentration, listed as MDC): completely inhibited the molting process; also recorded: completely inhibits
- Percent molted ([4]; 100 μM, L3 cultured 6 days): 0%
- Percent molted [4, 10]: 41%
- Molting of larvae cultured in the presence of MDC (in words) ([4]; day 6, electron microscopy study): failed to molt even on day 6
- PDI Activity (Mean ± SD) of PDI [5]: 24.0 ± 2.0 ΔA min^−1
- Effect on activity of transglutaminase purified from adult D. immitis worms (in words) [1]: inhibited competitively
- Transglutaminase activity (% of control) [1, 11]: 9 % of control
- Activity (mU ± SEM) [2]: 48.3 ± 4.0 mU and 44.6 ± 5.1 mU
- Effect on transglutaminase activity of PHIS-PDiTG468 (in words) [2]: inhibited the transglutaminase activity

Molecule: NCCCCN [Putrescine]
- Effect on activity of transglutaminase purified from adult D. immitis worms (in words) [1]: inhibited competitively
- Transglutaminase activity (% of control) [1, 11]: 14 % of control
- Activity (mU ± SEM) [2]: 36.5 ± 3.9 mU and 35.3 ± 4.3 mU
- Effect on transglutaminase activity of PHIS-PDiTG468 (in words) [2]: inhibited the transglutaminase activity

Molecule: OCCS [mercaptoethanol]
- Effect on activity of transglutaminase purified from adult D. immitis worms (in words) [1]: increased the enzyme activity substantially

Molecule: Nα-CBZ-Gln-Gly
- Effect on activity of transglutaminase purified from adult D. immitis worms (in words) [1]: affects the enzyme activity only slightly
- Transglutaminase activity (% of control) [1]: 92 % of control

Molecule: Tris-HCl
- Effect on activity of transglutaminase purified from adult D. immitis worms (in words) [1]: reversibly inhibited the enzyme
- Transglutaminase activity (% of control) [1]: 66 % of control and 40 % of control

B1: PDI: bovine protein disulfide isomerase, purified from bovine liver, available from Sigma (protein, UniProt P05307 21-510, looked up)
Protein disulfide-isomerase: T1 sequence (P05307 21-510)
- Temperature of optimum transglutaminase activity [7]: 55 °C
- Activity (mU ± SEM) ([7]; 37 °C): 30.3 ± 1.0 mU
- Activity (mU ± SEM) ([7]; 45 °C): 47.2 ± 2.5 mU
- Activity (mU ± SEM) ([7]; 55 °C): 92.1 ± 4.3 mU
- Activity (mU ± SEM) ([7]; 65 °C): 67.0 ± 2.9 mU

— patent US6383774B1, “Parasitic nematode transglutaminase, nucleic acid molecules and uses thereof” (Heska Corporation, priority 1996, dated 2002)
